Laboratory results reported in patent US6593335B1, “Potassium channel openers” (Abbott Laboratories, priority 1997, dated 2003).
pEC50: −log10 of the molar value. Where “and” joins values, the source holds several entries; their conditions need not be identical. Equal entries are not always repeated.

Assays:
[1] = biological target: potassium channels (Cavia porcellus, UniProt A0A286XYR9); assay: Membrane hyperpolarization (MHP) assay in primary cultured guinea-pig urinary bladder (GPB) cells, DiBAC(4)3 FLIPR; type: cell-based; conditions: for pEC50: concentration that elicits 50% of the maximal response for the test sample; for MHP in GPB Cells Maximal Response (% P1075): maximal steady-state hyperpolarization relative to reference P1075 (assigned as 100%)
Chain of potassium channels (Cavia porcellus, UniProt A0A286XYR9) (A0A286XYR9 1-1546): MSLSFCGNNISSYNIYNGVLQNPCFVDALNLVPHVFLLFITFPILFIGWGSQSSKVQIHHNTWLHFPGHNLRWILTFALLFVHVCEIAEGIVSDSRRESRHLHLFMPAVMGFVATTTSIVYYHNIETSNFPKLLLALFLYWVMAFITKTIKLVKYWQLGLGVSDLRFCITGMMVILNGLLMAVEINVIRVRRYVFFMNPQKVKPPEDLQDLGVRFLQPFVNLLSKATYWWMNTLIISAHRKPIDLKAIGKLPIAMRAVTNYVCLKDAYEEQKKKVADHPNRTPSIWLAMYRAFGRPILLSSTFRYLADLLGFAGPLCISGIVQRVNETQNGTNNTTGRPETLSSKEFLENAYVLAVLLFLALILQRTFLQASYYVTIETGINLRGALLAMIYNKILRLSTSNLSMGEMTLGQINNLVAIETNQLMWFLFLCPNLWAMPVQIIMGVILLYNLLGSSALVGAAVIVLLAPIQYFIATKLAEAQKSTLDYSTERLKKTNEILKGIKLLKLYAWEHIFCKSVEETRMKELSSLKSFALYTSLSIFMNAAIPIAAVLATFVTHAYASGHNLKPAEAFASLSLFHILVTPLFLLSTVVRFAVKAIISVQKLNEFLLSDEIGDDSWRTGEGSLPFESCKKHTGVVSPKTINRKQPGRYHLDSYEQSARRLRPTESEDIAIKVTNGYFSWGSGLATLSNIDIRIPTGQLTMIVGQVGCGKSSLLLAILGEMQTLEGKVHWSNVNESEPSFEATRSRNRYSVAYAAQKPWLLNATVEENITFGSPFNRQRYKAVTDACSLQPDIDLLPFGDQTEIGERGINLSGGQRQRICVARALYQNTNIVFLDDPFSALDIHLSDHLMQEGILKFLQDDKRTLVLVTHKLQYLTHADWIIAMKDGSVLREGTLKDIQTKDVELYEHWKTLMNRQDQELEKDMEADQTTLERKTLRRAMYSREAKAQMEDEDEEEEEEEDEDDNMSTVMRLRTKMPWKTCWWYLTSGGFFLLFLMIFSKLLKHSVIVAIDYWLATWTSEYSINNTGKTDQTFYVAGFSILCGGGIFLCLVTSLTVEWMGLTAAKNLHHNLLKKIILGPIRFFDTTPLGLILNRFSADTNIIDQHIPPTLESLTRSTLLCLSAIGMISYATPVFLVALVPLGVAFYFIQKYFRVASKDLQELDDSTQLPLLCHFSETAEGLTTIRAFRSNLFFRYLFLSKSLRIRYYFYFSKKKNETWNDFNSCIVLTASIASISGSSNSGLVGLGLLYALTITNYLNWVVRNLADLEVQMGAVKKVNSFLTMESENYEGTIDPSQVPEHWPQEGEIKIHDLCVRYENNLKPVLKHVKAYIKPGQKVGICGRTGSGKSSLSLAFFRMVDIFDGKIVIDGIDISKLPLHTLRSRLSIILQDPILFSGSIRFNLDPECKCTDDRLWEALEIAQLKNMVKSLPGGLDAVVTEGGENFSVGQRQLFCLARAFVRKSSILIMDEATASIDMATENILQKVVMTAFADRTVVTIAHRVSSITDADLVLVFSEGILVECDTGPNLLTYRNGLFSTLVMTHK
Chain of potassium channels (Cavia porcellus, UniProt A0A286XYR9) (Q9JHJ9 whole entry partner): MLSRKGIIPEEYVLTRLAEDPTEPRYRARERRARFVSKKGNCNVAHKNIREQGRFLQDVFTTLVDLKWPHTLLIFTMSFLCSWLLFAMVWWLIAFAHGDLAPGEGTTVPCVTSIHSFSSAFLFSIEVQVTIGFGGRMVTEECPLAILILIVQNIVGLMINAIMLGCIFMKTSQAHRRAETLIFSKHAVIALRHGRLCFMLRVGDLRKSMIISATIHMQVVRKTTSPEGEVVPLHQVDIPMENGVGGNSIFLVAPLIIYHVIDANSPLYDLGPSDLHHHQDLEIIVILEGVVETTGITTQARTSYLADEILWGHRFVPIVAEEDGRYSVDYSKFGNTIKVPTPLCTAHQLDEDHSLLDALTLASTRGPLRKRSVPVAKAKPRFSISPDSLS
Procedure: Determination of Potassium Channel Opening Activity Membrane Hyperpolarization Assays Compounds were evaluated for potassium channel opening activity using the rat thoracic aorta smooth muscle AI 0 cell line or primary cultured guinea-pig urinary bladder (GPB) cells. The AI0 cell line was purchased from the American Type Culture Collection (Rockville, MD; Cat # 30-2002). […] Louis, MO) and 0.2 mg/mL ronase (Calbiochem, La Jolla, CA) with continuous stirring in a cell incubator for 30 minutes. The mixture was then centrifuged at 1300 x g for 5 minutes, and the pellet resuspended in Dulbecco's PBS (GIBCO, Gaithersburg, MD) and recentrifuged to remove residual enzyme. […] Cells were confirmed to be of smooth muscle type by cytoskeletal staining using a monoclonal mouse anti human-a-smooth muscle actin (Biomeda, Foster City, CA). Functional activity at potassium channels was measured by evaluating changes in membrane potential using the bis-oxonol dye DiBAC(4)3 (Molecular Probes) in a 96-well cell-based kinetic assay system, Fluorescent Imaging Plate Reader (FLIPR) (K.S. Schroeder et al., J. Biomed. Screen., v. I pp. 75-81 (1996)). DiBAC(4)3 is an anionic potentiometric probe which partitions between cells and extracellular solution in a membrane potential-dependent manner. With increasing membrane potential (for example, K+depolarization), the probe further partitions into the cell; this is measured as an increase in fluorescence due to dye interaction with intracellular lipids and proteins. Conyersely, decreasing membrane potential (hyperpolarization by potassium channel openers) evokes a decrease in fluorescence. […] HEPES, 20; NaCl, 120; KCl, 2; CaC'2, 2; MgCl2, 1; glucose, 5; pH 7.4 at 25 ° C.) containing 5 µM DiBAC(4)3 and incubated with […] of the buffer in a cell incubator for 30 minutes at 37 OC to ensure dye distribution across the membrane. After recording the baseline fluorescence for 5 minutes, the reference or test compounds, prepared at 10 times the concentration in the assay buffer, were added directly to the wells. Changes in fluorescence were monitored for an additional 25 minutes. […] Pharmacol., v. 43 pp. 474-481 (1993)). Routinely, five concentrations of […] or test compounds (log or half-log dilutions) were evaluated and the maximal steady-state hyperpolarization values (expressed as % relative to […]) plotted as a function of concentration. […] The maximal response of each compound (expressed as % relative to […]) is reported.

[2] = biological target: potassium channels (Sus scrofa, UniProt F1SR11); assay: Functional potassium channel opening activity in isolated Landrace pig bladder strips (field-stimulated twitch); conditions: for Landrace Pig Bladder Index: ED50 for P1075 divided by ED50 for the test agonist, averaged over tissues; for Landrace Pig Bladder pD2: negative logarithm of ED50
Method in brief: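 Landrace pig bladder strips with the mucosa removed were field-stimulated (0.05 Hz, 0.5 ms, 20 V) in Krebs Ringer bicarbonate containing propranolol, and primed with 80 mM KCl. Cumulative concentration-response curves gave maximal efficacy relative to a reference potassium channel opener, pD2, and a potency index (reference ED50/test ED50) averaged across tissues.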

[3] = biological target: potassium channels (Homo sapiens, UniProt O60706); assay: Functional potassium channel opening activity in isolated human bladder strips (25 mM KCl contracted)
Procedure: Human bladders were obtained from women greater than 45 years old. The human tissue was obtained from the Anatomic Gift Foundation, Phoenix AZ. Human tissue was received via overnight delivery on wet ice placed into Krebs Ringer bicarbonate solution (composition, mM: NaCl, 120; NaHCO3, 20; dextrose, 11; KCl, 4.7; 20 CaC′2, 2.5; MgSO4, 1.5; KH2PO4, 1.2; K2EDTA, 0.01, equilibrated with 5% C02/95% 02 pH 7.4 at 37 ° C.). Propranolol (0.004 mM) was included in all of the assays to block […]. The trigonal and dome portions were discarded. Strips 3-5 mm wide and 20 mm long were prepared from the remaining tissue cut in a circular fashion. The mucosal layer was removed. For the human detrusor strips the tissues were contracted 25 with 25 mM KCl which produced a steady state tension of approximately 400 centigrams. […]
After a 60 minute rinsing period, a concentration response curve (cumulative) was 30 generated for the test agonist in the same fashion as that used for the control agonist P1075. The maxximal efficacies of the compounds (expressed as % relative to P1075) are reported. […] Agonist potencies were also expressed as an index relative to PI1075. The index was calculated by dividing the ED50 for P1075 by the ED50 for the test agonist in a given tissue. […]

[4] = biological target: potassium channels (Rattus norvegicus, UniProt Q63563); assay: Membrane hyperpolarization (MHP) assay in A10 cells, DiBAC(4)3 FLIPR; type: cell-based; conditions: for pEC50: concentration that elicits 50% of the maximal response for the test sample; for MHP in A10 Cells Maximal Response (% P1075): maximal steady-state hyperpolarization relative to reference P1075 (assigned as 100%)
Chain of potassium channels (Rattus norvegicus, UniProt Q63563) (Q63563 whole entry): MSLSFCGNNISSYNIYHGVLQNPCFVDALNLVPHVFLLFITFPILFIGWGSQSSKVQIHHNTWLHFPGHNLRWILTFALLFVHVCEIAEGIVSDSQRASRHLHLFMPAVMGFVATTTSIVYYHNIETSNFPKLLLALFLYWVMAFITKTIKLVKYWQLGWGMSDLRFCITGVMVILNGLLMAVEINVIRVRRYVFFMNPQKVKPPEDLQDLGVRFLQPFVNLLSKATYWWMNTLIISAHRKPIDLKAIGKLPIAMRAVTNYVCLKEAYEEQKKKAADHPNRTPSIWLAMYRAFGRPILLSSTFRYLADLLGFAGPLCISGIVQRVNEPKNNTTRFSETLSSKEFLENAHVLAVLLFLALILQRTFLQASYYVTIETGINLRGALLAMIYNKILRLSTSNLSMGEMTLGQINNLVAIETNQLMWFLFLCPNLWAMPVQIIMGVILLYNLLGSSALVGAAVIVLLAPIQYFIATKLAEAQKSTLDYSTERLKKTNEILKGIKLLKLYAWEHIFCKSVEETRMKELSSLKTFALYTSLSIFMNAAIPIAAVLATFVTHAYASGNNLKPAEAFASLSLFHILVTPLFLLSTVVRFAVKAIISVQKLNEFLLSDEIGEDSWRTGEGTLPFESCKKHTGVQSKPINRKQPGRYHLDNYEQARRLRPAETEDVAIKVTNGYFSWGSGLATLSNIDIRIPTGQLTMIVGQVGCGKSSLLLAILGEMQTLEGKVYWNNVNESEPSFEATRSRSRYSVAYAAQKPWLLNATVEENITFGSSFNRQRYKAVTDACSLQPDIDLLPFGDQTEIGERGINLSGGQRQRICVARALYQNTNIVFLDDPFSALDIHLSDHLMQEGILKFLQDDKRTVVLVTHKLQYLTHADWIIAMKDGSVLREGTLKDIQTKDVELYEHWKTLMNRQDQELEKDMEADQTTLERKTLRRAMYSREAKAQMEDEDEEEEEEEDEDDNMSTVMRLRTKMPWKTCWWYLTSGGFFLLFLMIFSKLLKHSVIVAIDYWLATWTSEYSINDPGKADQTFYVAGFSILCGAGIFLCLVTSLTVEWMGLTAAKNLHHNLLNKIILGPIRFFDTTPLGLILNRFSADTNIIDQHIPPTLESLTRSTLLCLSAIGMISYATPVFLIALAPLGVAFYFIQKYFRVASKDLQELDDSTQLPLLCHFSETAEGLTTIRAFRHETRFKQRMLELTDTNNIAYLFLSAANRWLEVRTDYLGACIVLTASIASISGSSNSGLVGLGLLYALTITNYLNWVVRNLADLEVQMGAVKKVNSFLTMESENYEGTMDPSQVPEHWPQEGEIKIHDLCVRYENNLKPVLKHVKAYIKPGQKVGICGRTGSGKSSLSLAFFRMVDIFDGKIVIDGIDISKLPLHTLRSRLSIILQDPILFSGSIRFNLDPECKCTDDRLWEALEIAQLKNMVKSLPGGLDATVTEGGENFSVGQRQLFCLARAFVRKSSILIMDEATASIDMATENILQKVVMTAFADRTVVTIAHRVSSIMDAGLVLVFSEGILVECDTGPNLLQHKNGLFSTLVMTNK
Chain of potassium channels (Rattus norvegicus, UniProt Q63563) (Q63664 whole entry partner): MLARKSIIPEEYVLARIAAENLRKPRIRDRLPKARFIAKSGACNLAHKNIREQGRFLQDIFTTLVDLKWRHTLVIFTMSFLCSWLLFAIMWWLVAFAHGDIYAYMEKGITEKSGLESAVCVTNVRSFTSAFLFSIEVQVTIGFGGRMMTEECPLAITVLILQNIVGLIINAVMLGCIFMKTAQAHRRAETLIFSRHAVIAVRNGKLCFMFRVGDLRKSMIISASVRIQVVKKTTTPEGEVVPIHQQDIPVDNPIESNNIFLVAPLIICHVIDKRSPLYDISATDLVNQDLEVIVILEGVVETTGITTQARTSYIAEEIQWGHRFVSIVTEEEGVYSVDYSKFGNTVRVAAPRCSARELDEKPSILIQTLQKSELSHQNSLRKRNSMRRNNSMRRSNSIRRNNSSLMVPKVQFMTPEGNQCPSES
Procedure: Determination of Potassium Channel Opening Activity Membrane Hyperpolarization Assays Compounds were evaluated for potassium channel opening activity using the rat thoracic aorta smooth muscle AI 0 cell line or primary cultured guinea-pig urinary bladder (GPB) cells.
The AI0 cell line was purchased from the American Type Culture Collection (Rockville, MD; Cat # 30-2002). Cells were grown in 96-well clear-bottomed black plates (Packard) in culture media (composition: Dulbecco′s modified Eagle′s medium supplemented with 20% Fetal Bovine Serum, 100 units/mL penicillin, 100 units/mL streptomycin and 0.25 […]) at 37 ° C. with 5% C02 in a humidified chamber to form a confluent monolayer. 25 For the preparation of urinary bladder smooth muscle cells, urinary bladders were removed from male guinea-pigs (Hartley, Charles River, Wilmington, MA) weighing 300-400 g and placed in ice-cold Ca^2+-free Krebs solution (Composition, mM: KCl, 2.7; KH2PO4, 1.5; NaCl, 75; Na2HPO4, 9.6; Na2HPO4.7H2O, 8; MgSO4, 2; glucose, 5;HEPES, 10; pH 7.4). Cells were isolated by enzymatic dissociation as previously escribed with minor modifications (Klockner, U. and Isenberg, G., Pflugers Arch. 1985, 05, 329-339). The bladder was cut into small sections and incubated in 5 mL of the reb′s solution containing I mg/mL collagenase (Sigma, St. Louis, MO) and 0.2 mg/mL ronase (Calbiochem, La Jolla, CA) with continuous stirring in a cell incubator for 30 minutes. […]
Functional activity at potassium channels was measured by evaluating changes in membrane potential using the bis-oxonol dye DiBAC(4)3 (Molecular Probes) in a 96-well cell-based kinetic assay system, Fluorescent Imaging Plate Reader (FLIPR) (K.S. Schroeder et al., J. Biomed. Screen., v. I pp. 75-81 (1996)). […] With increasing membrane potential (for example, K+depolarization), the probe further partitions into the cell; this is measured as an increase in fluorescence due to dye interaction with intracellular lipids and proteins.
Conyersely, decreasing membrane potential (hyperpolarization by potassium channel openers) evokes a decrease in fluorescence.
Confluent smooth muscle A10 or guinea-pig urinary bladder cells cultured in black clear-bottomed 96-well plates were rinsed twice with […] assay buffer (composition, mM: HEPES, 20; NaCl, 120; KCl, 2; CaC′2, 2; MgCl2, 1; glucose, 5; pH 7.4 at 25 ° C.) containing 5 µM DiBAC(4)3 and incubated with […] of the buffer in a cell incubator for 30 minutes at 37 OC to ensure dye distribution across the membrane. After recording the baseline fluorescence for 5 minutes, the reference or test compounds, prepared at 10 times the concentration in the assay buffer, were added directly to the wells. Changes in fluorescence were monitored for an additional 25 minutes. […]

[5] = maximal efficacy relative to P1075, field stimulation 0.05Hz, 0.5 milli-seconds at 20 volts

Compound	pEC50 [1]	MHP in GPB Cells Maximal Response (% P1075) [1]	Landrace Pig Bladder Index [2]	Landrace Pig Bladder Efficacy (% P1075) [2, 5] [% P1075]	Landrace Pig Bladder pD2 [2]	other results
CC1(C)CCC2=C(C1=O)C(c1cccc([N+](=O)[O-])c1)C1=C(CCS1(=O)=O)N2 (stereo not shown) [Example 189, 7,7-dimethyl-9-(3-nitrophenyl)-2,3,5,6,7,,9-hexahydrothieno[3.2-b]guinolin-8(4H)-one 1,1-dioxide]	5.00	51 % P1075	–	–	–	–
CCC(C)(C)N=C(NC#N)Nc1cccnc1 [Example P1075, reference compound]	–	–	–	–	–	effect on stimulated twitch of pig bladder strips ([2]; control agonist, concentration range of 10-9 to 10-′M, 1/2 log increments): completely eliminated the stimulated twitch; relaxation of human detrusor strips ([3]; control agonist, 25 mM KCl contracted): complete relaxation
8-(3-bromo-4-fluorophenyl)-6-trifluoromethyl-5,8-dihydrothiopyrano[3 .2-b]pyridine, 1,1-dioxide [Example 159]	–	100 % P1075	–	–	–	–
CC1(C)CCC2=C(C1=O)C(c1cc(Br)c(O)c(Br)c1)C1=C(CCS1(=O)=O)N2 (stereo not shown) [Example 207]	5.92	92 % P1075	–	–	–	–
CC1(C)CCC2=C(C1=O)C(c1cc(Cl)cc(Br)c1O)C1=C(CCS1(=O)=O)N2 (stereo not shown) [Example 199, 9-(3-bromo-5-chloro-2-hydroxyphenyl)-7,7-dimethyl-2,3.5.6,7,9-hexahydrothieno[3.2-b]quinolin-8(4H)-one 1,1-dioxide]	< 5.00	12 % P1075	–	–	–	–
O=C1CCCC2=C1C(c1cccc(F)c1)C1=C(CCCS1(=O)=O)N2 (stereo not shown) [Example 11, 10-(3-fluorophenyl)-3,4,6,7,8,10-hexahydro-2H-thionyrano [3,2-b]quinolin-9(5H)-one, 1,1-dioxide]	4.70	29 % P1075	0.0021	100	4.1	pEC50 [4]: 4.96; MHP in A10 Cells Maximal Response (% P1075) [4]: 42 % P1075
O=C1CCCC2=C1C(c1ccc(Cl)c([N+](=O)[O-])c1)C1=C(CCCS1(=O)=O)N2 (stereo not shown) [Example 19, 10-(4-chloro-3-nitrolphenyl)-3,4,6,7,8,10-hexahydro-2H-thiopyrano [3,2-b]quinolin-9(5H)-one, 1,1-dioxide]	–	–	0.13	–	6.0	Emax ([2]; pig, maximal efficacy relative to P1075, field stimulation 0.05Hz, 0.5 milli-seconds at 20 volts): 94%; Emax ([3]; human, maximal efficacy relative to P1075, detrusor strips contracted with 25 mM KCl): 100%
O=S1(=O)CCCC2=C1C(c1ccc(F)c(Br)c1)C1=C(CCCS1(=O)=O)N2 [Example 54, 10-(3-bromo-4-fluorophenyl)-3,4,6,7,8,10-hexahydro-2H,5H-dithiopyrano [3,2-b:2′,3′-e]pyridine, 1,1,9,9-tetraoxide]	–	107 % P1075 and 133 % P1075	0.015	89	4.9	–
O=C1CCCC2=C1C(c1cccc(Br)c1)C1=C(CCCS1(=O)=O)N2 (stereo not shown) [Example 8, 10-(3-bromophenyl)-3,4,6,7,8,10-hexahydro-2H-thiopyrano [3,2-b]quinolin-9(5H)-one, 1,1-dioxide]	5.60	100 % P1075	0.025	95	5.0	pEC50 [4]: 5.12; MHP in A10 Cells Maximal Response (% P1075) [4]: 66 % P1075
